From ChEMBL document CHEMBL3885881, “DrugMatrix”

Species: Rattus norvegicus
Experiment: DrugMatrix - Regimen: Daily Repeat
Type: toxicity, organism-based, Sprague-Dawley
Set-up: regimen Daily Repeat, gender Male, age 6-8 weeks
Details: in vivo, po, route oral GAVAGE, vehicle .5 % CMC; for ABSOLUTE BASOPHIL / ABSOLUTE EOSINOPHIL / ABSOLUTE LYMPHOCYTE / ABSOLUTE MONOCYTE / ABSOLUTE SEGMENTED NEUTROPHIL / BASOPHIL / EOSINOPHIL / ERYTHROCYTE COUNT / HEMATOCRIT / HEMOGLOBIN / LEUKOCYTE COUNT / LYMPHOCYTE / MEAN CORPUSCULAR HEMOGLOBIN / MEAN CORPUSCULAR HEMOGLOBIN CONCENTRATION / MEAN CORPUSCULAR VOLUME / MONOCYTE / NEUTROPHIL / NUCLEATED RED BLOOD CELLS / PLATELET COUNT: tissue Blood; for ALANINE AMINOTRANSFERASE / ALBUMIN / ALKALINE PHOSPHATASE / ASPARTATE AMINOTRANSFERASE / BLOOD UREA NITROGEN / CARBON DIOXIDE / CHLORIDE / CHOLESTEROL / CREATINE PHOSPHOKINASE / CREATININE / GLUCOSE / LACTATE DEHYDROGENASE / LIPASE / PHOSPHORUS / POTASSIUM / SODIUM / TOTAL BILIRUBIN / TOTAL PROTEIN / URIC ACID: tissue Plasma
[1] = 0 mg/kg, 72 h, dose level Control, time 3 day
[2] = 0 mg/kg, 120 h, dose level Control, time 5 day
[3] = 100 mg/kg, 72 h, dose level Low, time 3 day

Cl.NC[C@H]1CC[C@H](C(=O)Oc2ccc(CCC(=O)O)cc2)CC1 [CETRAXATE HYDROCHLORIDE]
ABSOLUTE BASOPHIL [1]: 0 CELLS/uL | ABSOLUTE EOSINOPHIL [1]: 284.5 CELLS/uL | ABSOLUTE LYMPHOCYTE [1]: 11670.5 CELLS/uL | ABSOLUTE MONOCYTE [1]: 420.83 CELLS/uL | ABSOLUTE SEGMENTED NEUTROPHIL [1]: 1024.17 CELLS/uL | BASOPHIL [1]: 0% | EOSINOPHIL [1]: 1.67% | ERYTHROCYTE COUNT [1]: 5.38 x10E6/uL | HEMATOCRIT [1]: 34.05% | HEMOGLOBIN [1]: 12.75 G/DL | LEUKOCYTE COUNT [1]: 13.4 x10E3/uL | LYMPHOCYTE [1]: 88.33% | MEAN CORPUSCULAR HEMOGLOBIN [1]: 23.73 pg | MEAN CORPUSCULAR HEMOGLOBIN CONCENTRATION [1]: 37.43 G/DL | MEAN CORPUSCULAR VOLUME [1]: 63.4 fL | MONOCYTE [1]: 2.83% | NEUTROPHIL [1]: 7.17% | NUCLEATED RED BLOOD CELLS [1]: 0 /100WBC | PLATELET COUNT [1]: 1184.67 x10E3/uL | ALANINE AMINOTRANSFERASE [1]: 45.33 u/L | ALBUMIN [1]: 4.3 G/DL | ALKALINE PHOSPHATASE [1]: 388.83 u/L | ASPARTATE AMINOTRANSFERASE [1]: 84.83 u/L | BLOOD UREA NITROGEN [1]: 15.5 mg/dL | CARBON DIOXIDE [1]: 27 mmol/L | CHLORIDE [1]: 101.8 MEQ/L | CHOLESTEROL [1]: 76.67 mg/dL | CREATINE PHOSPHOKINASE [1]: 301 u/L | CREATININE [1]: 0.21 mg/dL | GLUCOSE [1]: 168.83 mg/dL | LACTATE DEHYDROGENASE [1]: 294.83 u/L | LIPASE [1]: 9.8 u/L | PHOSPHORUS [1]: 13.25 mg/dL | POTASSIUM [1]: 6.41 MEQ/L | SODIUM [1]: 143.72 MEQ/L | TOTAL BILIRUBIN [1]: 0.22 mg/dL | TOTAL PROTEIN [1]: 5.98 G/DL | URIC ACID [1]: 1.5 mg/dL | ABSOLUTE BASOPHIL [2]: 0 CELLS/uL | ABSOLUTE EOSINOPHIL [2]: 190.67 CELLS/uL | ABSOLUTE LYMPHOCYTE [2]: 12549.5 CELLS/uL | ABSOLUTE MONOCYTE [2]: 276 CELLS/uL | ABSOLUTE SEGMENTED NEUTROPHIL [2]: 1067.17 CELLS/uL | BASOPHIL [2]: 0% | EOSINOPHIL [2]: 1.33% | ERYTHROCYTE COUNT [2]: 5.66 x10E6/uL | HEMATOCRIT [2]: 35.92% | HEMOGLOBIN [2]: 13.65 G/DL | LEUKOCYTE COUNT [2]: 14.08 x10E3/uL | LYMPHOCYTE [2]: 89% | MEAN CORPUSCULAR HEMOGLOBIN [2]: 24.12 pg | MEAN CORPUSCULAR HEMOGLOBIN CONCENTRATION [2]: 38.03 G/DL | MEAN CORPUSCULAR VOLUME [2]: 63.47 fL | MONOCYTE [2]: 2% | NEUTROPHIL [2]: 7.67% | NUCLEATED RED BLOOD CELLS [2]: 0.17 /100WBC | PLATELET COUNT [2]: 1251.67 x10E3/uL | ALANINE AMINOTRANSFERASE [2]: 43.33 u/L | ALBUMIN [2]: 4.22 G/DL | ALKALINE PHOSPHATASE [2]: 365.67 u/L | ASPARTATE AMINOTRANSFERASE [2]: 83.67 u/L | BLOOD UREA NITROGEN [2]: 18.17 mg/dL | CARBON DIOXIDE [2]: 28.67 mmol/L | CHLORIDE [2]: 103.5 MEQ/L | CHOLESTEROL [2]: 71.5 mg/dL | CREATINE PHOSPHOKINASE [2]: 284.5 u/L | CREATININE [2]: 0.21 mg/dL | GLUCOSE [2]: 161.67 mg/dL | LACTATE DEHYDROGENASE [2]: 259.67 u/L | LIPASE [2]: 9.5 u/L | PHOSPHORUS [2]: 12.45 mg/dL | POTASSIUM [2]: 6.49 MEQ/L | SODIUM [2]: 144.25 MEQ/L | TOTAL BILIRUBIN [2]: 0.2 mg/dL | TOTAL PROTEIN [2]: 6.1 G/DL | URIC ACID [2]: 1.73 mg/dL | ABSOLUTE BASOPHIL [3]: 0 CELLS/uL | ABSOLUTE EOSINOPHIL [3]: 0 CELLS/uL | ABSOLUTE LYMPHOCYTE [3]: 4748 CELLS/uL | ABSOLUTE MONOCYTE [3]: 119.67 CELLS/uL | ABSOLUTE SEGMENTED NEUTROPHIL [3]: 265.67 CELLS/uL | BASOPHIL [3]: 0% | EOSINOPHIL [3]: 0% | ERYTHROCYTE COUNT [3]: 5.52 x10E6/uL | HEMATOCRIT [3]: 36.1% | HEMOGLOBIN [3]: 13.33 G/DL | LEUKOCYTE COUNT [3]: 5.13 x10E3/uL | LYMPHOCYTE [3]: 92.67% | MEAN CORPUSCULAR HEMOGLOBIN [3]: 24.2 pg | MEAN CORPUSCULAR HEMOGLOBIN CONCENTRATION [3]: 36.97 G/DL | MEAN CORPUSCULAR VOLUME [3]: 65.43 fL | MONOCYTE [3]: 2.33% | NEUTROPHIL [3]: 5% | NUCLEATED RED BLOOD CELLS [3]: 0 /100WBC | PLATELET COUNT [3]: 1331 x10E3/uL | ALANINE AMINOTRANSFERASE [3]: 33.33 u/L | ALBUMIN [3]: 4.63 G/DL | ALKALINE PHOSPHATASE [3]: 363 u/L | ASPARTATE AMINOTRANSFERASE [3]: 79 u/L | BLOOD UREA NITROGEN [3]: 15 mg/dL | CARBON DIOXIDE [3]: 25 mmol/L | CHLORIDE [3]: 104 MEQ/L | CHOLESTEROL [3]: 87.33 mg/dL | CREATINE PHOSPHOKINASE [3]: 255.33 u/L | CREATININE [3]: 0.17 mg/dL | GLUCOSE [3]: 163.33 mg/dL | LACTATE DEHYDROGENASE [3]: 159.67 u/L | LIPASE [3]: 10 u/L | PHOSPHORUS [3]: 12.2 mg/dL | POTASSIUM [3]: 6 MEQ/L | SODIUM [3]: 147 MEQ/L | TOTAL BILIRUBIN [3]: 0.13 mg/dL | TOTAL PROTEIN [3]: 6.57 G/DL | URIC ACID [3]: 1.6 mg/dL
